Experimental data published in ChEMBL document CHEMBL1201862, “PubChem BioAssay data set” (2004).
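Step 1: Grow cells in 96-well plates. Step 2: Expose to compound for 48 hours at 5 concentrations. Step 3: Interpolate endpoints linearly; if unreached, use highest concentration. GI50 is the concentration that inhibits growth by half.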 Calls of active or inactive are those of the source. Rule as the data show it: active = GI50 up to about 1.1 µM and inactive = higher.

What was measured:
Experiment in all cases: NCI anticancer screen, dose series, 48 h
786-0 = test system: 786-0
A498 = test system: A498
A549 = test system: A549
ACHN = test system: ACHN
BT-549 = test system: BT-549
CAKI-1 = test system: CAKI-1
CCRF-CEM = test system: CCRF-CEM
COLO 205 = test system: COLO 205
DU-145 = test system: DU-145
EKVX = test system: EKVX
HCC 2998 = test system: HCC 2998
HCT-116 = test system: HCT-116
HCT-15 = test system: HCT-15
HL-60 = test system: HL-60
HOP-62 = test system: HOP-62
HOP-92 = test system: HOP-92
HT-29 = test system: HT-29
Hs-578T = test system: Hs-578T
IGROV-1 = test system: IGROV-1
K562 = test system: K562
KM12 = test system: KM12
LOX IMVI = test system: LOX IMVI
M14 = test system: M14
MCF7 = test system: MCF7
MDA-MB-231 = test system: MDA-MB-231
MDA-MB-435 = test system: MDA-MB-435
MDA-N = test system: MDA-N
MOLT-4 = test system: MOLT-4
NCI-H226 = test system: NCI-H226
NCI-H23 = test system: NCI-H23
NCI-H460 = test system: NCI-H460
NCI-H522 = test system: NCI-H522
NCI/ADR-RES = test system: NCI/ADR-RES
OVCAR-3 = test system: OVCAR-3
OVCAR-5 = test system: OVCAR-5
OVCAR-8 = test system: OVCAR-8
PC-3 = test system: PC-3
RPMI-8226 = test system: RPMI-8226
RXF 393 = test system: RXF 393
SF-268 = test system: SF-268
SF-295 = test system: SF-295
SF-539 = test system: SF-539
SK-MEL-28 = test system: SK-MEL-28
SK-MEL-2 = test system: SK-MEL-2
SK-MEL-5 = test system: SK-MEL-5
SK-OV-3 = test system: SK-OV-3
SN12C = test system: SN12C
SNB-19 = test system: SNB-19
SNB-75 = test system: SNB-75
SR = test system: SR
SW-620 = test system: SW-620
T47D = test system: T47D
TK-10 = test system: TK-10
U-251 = test system: U-251
UACC-257 = test system: UACC-257
UACC-62 = test system: UACC-62
UO-31 = test system: UO-31

In the case of C=C1C(C2(C)C=CC(=O)OC3(C)COC(=O)CC32)C(OC=O)C(OC(=O)C(O)C(C)CC)C2(C)C(c3ccoc3)CC(OC(C)=O)C12O (configuration not stated), the GI50 (786-0) is reported as > 100 µM (inactive), the GI50 (A498) is reported as > 100 µM (inactive) and the GI50 (A549) is reported as > 100 µM (inactive). For the same compound, the GI50 (ACHN) was 75.9 µM (inactive), the GI50 (BT-549) was 54.6 µM (inactive) and the GI50 (CAKI-1) was > 100 µM (inactive). For the same compound, the GI50 (CCRF-CEM) was 35 µM (inactive), the GI50 (COLO 205) was 81.8 µM (inactive) and the GI50 (DU-145) was > 100 µM (inactive). For the same compound, the GI50 (EKVX) was > 100 µM (inactive), the GI50 (HCC 2998) was 23.6 µM (inactive) and the GI50 (HCT-116) was 49 µM (inactive). The GI50 (HCT-15) was 84.3 µM, the GI50 (HL-60) was 2.69 µM (inactive) and the GI50 (HOP-62) was > 100 µM (inactive). For the same compound, the GI50 (HOP-92) was > 100 µM (inactive), the GI50 (HT-29) was 32.8 µM (inactive) and the GI50 (Hs-578T) was > 100 µM (inactive). The GI50 (IGROV-1) was 93.5 µM (inactive), the GI50 (K562) was > 100 µM (inactive) and the GI50 (KM12) was 34 µM (inactive). The GI50 (LOX IMVI) was 25.3 µM (inactive), the GI50 (M14) was 38.8 µM (inactive) and the GI50 (MCF7) was > 100 µM (inactive). For the same compound, the GI50 (MDA-MB-231) was > 100 µM (inactive), the GI50 (MDA-MB-435) was 40 µM (inactive) and the GI50 (MDA-N) was 37.6 µM (inactive). For the same compound, the GI50 (MOLT-4) was > 100 µM (inactive), the GI50 (NCI-H226) was > 100 µM (inactive) and the GI50 (NCI-H23) was > 100 µM (inactive). For the same compound, the GI50 (NCI-H460) was 42.1 µM (inactive), the GI50 (NCI-H522) was > 100 µM (inactive) and the GI50 (NCI/ADR-RES) was > 100 µM (inactive). The GI50 (OVCAR-3) was > 100 µM (inactive), the GI50 (OVCAR-5) was > 100 µM (inactive) and the GI50 (OVCAR-8) was > 100 µM (inactive). For the same compound, the GI50 (PC-3) was 39.2 µM (inactive), the GI50 (RPMI-8226) was > 100 µM (inactive) and the GI50 (RXF 393) was > 100 µM (inactive). The GI50 (SF-268) was > 100 µM (inactive), the GI50 (SF-295) was 84.1 µM (inactive) and the GI50 (SF-539) was > 100 µM (inactive). The GI50 (SK-MEL-28) was > 100 µM (inactive), the GI50 (SK-MEL-2) was 64.3 µM (inactive) and the GI50 (SK-MEL-5) was 35 µM (inactive). The GI50 (SK-OV-3) was > 100 µM (inactive), the GI50 (SN12C) was > 100 µM (inactive) and the GI50 (SNB-19) was > 100 µM (inactive). The GI50 (SNB-75) was 50.5 µM (inactive), the GI50 (SR) was 38.9 µM (inactive) and the GI50 (SW-620) was > 100 µM (inactive). For the same compound, the GI50 (T47D) was > 100 µM (inactive), the GI50 (TK-10) was > 100 µM (inactive) and the GI50 (U-251) was > 100 µM (inactive). The GI50 (UACC-257) was > 100 µM (inactive), the GI50 (UACC-62) was 35.6 µM (inactive) and the GI50 (UO-31) was 67.3 µM (inactive).
